Patent US7037656B2, “Methods and compositions for identifying ligands for nuclear receptors” (priority 2000, dated 2006)

Legend:
Assay in all cases: Yeast 6x EcRE-lacZ β-galactosidase transactivation assay
[1] = target: T1, Dm ΔN EcR + Cf USP + GRIP1 (Drosophila melanogaster, UniProt P34021); assay type: cell-based, Drosophila melanogaster; Choristoneura fumiferana; settings: RH 5992 10 μM, 4 hours, DMSO control 1.149
T1 construct: ubiquitin (human, 76 aa) (N, cleaved yes); expressed in transfected cells
Procedure: (§1) Briefly, yeast cells are cultured in 5 mL of YPD liquid medium overnight at 30° C. The cell culture was diluted 1:20 in YPD media and further grown until cell density reached an O.D of 0.6. at OD600. The cells were pelleted by centrifugation and washed with 10 mL of TE+0.1M lithium acetate. Cells are then resuspended in 10 mL TE+0.1M lithium acetate and incubated at 30° C. for 1 hour. Cells are collected and resuspended in 0.5 mL of TE+ 0.1M lithium acetate. Aliquots of cells (50 μL), were incubated for 15 minutes at 30° C. with 1–2 μg plasmid DNA in the presence of 5 μg of denatured salmon sperm DNA as DNA carrier. In the case of co-transformation, the indicated plasmids were added simultaneously. 50% polyethyleneglycol of molecular weight 4000, diluted in TE, was added to a final concentration of 35%. […]
(§2) Using the transformation method set forth above, yeast were co-transformed with a reporter gene as shown in FIG. 2 and the expression vector encoding the full-length D. melanogaster ecdysone receptor, DmEcR (FIG. 3A) in the presence or absence of the Dm EcR heterodimer partner, DmUSP (FIG. 4A). […] As the N-terminal portion of the Dm EcR receptor is reported to play a role in ligand independent transactivation, an expression vector containing an N-terminal deletion in the EcR was constructed (see FIG. 3B) and assessed in the β-galactosidase assays described above. […]

[2] = target: T2, Dm ΔN EcR +Cf ΔA/B USP + GRIP1 (Drosophila melanogaster, UniProt P34021); assay type: cell-based, Drosophila melanogaster; Choristoneura fumiferana; settings: RH 5992 10 μM, 4 hours, DMSO control 0.235
T2 construct: ubiquitin (human, 76 aa) (N, cleaved yes); expressed in transfected cells
Procedure: as §1, §2

[3] = target: T3, Aa ΔA/B EcR + Cf ΔA/B USP + GRIP1 (Aedes aegypti, UniProt P49880); assay type: cell-based, Aedes aegypti; Choristoneura fumiferana; settings: RH 5992 10 μM, 4 hours, DMSO control 0.250
T3 construct: ubiquitin (human, 76 aa) (N, cleaved yes); expressed in transfected cells
Procedure: as §1, with “simultaneously.” for “simultaneously. 50% polyethyleneglycol of molecular weight 4000, diluted in TE, was added to a final concentration of 35%.”
Using the transformation method described above, yeast were co-transformed with a reporter gene as shown in FIG. 2 and the expression vector encoding the full-length Aedes aegypti ecdysone receptor, Aa EcR (FIG. 7A) in the presence or absence of the Aa EcR heterodimer partner, Aa USP (a or b form, FIGS. 8A and 8B respectively). […] As the N-terminal portion of the AaEcR receptor is reported to play a role in ligand independent transactivation, an expression vector containing an N-terminal deletion in the Aa EcR was constructed (see FIG. 7B) and assessed in the β-galactosidase assays described above. […]

T3 sequence (P49880 with tags, fused parts or gaps): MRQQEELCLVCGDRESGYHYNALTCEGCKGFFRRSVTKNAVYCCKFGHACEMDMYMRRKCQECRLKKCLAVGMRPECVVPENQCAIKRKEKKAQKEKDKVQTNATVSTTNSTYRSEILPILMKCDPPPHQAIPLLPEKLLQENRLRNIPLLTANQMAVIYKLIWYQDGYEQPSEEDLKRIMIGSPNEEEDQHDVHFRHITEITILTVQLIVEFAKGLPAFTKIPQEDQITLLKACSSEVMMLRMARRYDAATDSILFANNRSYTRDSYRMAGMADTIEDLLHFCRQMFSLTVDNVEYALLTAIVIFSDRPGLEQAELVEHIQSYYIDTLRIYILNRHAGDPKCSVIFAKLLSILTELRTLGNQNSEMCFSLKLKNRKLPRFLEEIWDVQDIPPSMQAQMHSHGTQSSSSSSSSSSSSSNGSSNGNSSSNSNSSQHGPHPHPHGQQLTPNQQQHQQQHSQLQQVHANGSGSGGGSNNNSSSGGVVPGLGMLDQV
T3 sequence (O76202 with tags, fused parts or gaps partner): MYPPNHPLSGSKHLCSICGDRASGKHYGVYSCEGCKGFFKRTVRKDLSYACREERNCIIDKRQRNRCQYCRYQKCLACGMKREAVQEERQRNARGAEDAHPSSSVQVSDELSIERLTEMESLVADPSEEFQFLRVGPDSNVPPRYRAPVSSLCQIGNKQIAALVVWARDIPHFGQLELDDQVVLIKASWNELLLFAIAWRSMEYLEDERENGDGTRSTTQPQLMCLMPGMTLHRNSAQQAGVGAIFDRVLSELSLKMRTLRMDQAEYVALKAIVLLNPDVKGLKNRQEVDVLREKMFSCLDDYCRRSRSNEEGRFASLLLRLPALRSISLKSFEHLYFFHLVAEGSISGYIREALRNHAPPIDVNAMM
T1 sequence (P34021 221-878 limits assumed, stated change not applied): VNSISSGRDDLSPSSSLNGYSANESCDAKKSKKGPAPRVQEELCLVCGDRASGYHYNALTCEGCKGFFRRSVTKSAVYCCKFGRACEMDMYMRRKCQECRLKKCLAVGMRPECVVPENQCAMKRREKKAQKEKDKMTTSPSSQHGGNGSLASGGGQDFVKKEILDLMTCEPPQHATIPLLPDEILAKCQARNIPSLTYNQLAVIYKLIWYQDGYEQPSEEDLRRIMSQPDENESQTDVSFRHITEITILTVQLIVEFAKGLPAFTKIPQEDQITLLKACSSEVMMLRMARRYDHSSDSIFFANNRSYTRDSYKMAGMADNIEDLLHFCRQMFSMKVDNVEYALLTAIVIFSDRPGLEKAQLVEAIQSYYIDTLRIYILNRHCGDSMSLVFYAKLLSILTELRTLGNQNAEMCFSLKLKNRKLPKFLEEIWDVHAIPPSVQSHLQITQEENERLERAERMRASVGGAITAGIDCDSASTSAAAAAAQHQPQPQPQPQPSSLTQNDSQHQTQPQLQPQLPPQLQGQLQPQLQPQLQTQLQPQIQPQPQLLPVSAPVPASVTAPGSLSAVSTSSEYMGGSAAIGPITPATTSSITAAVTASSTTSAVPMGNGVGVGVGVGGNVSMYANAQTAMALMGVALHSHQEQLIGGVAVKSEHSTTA
T1 sequence (O76202 whole entry partner): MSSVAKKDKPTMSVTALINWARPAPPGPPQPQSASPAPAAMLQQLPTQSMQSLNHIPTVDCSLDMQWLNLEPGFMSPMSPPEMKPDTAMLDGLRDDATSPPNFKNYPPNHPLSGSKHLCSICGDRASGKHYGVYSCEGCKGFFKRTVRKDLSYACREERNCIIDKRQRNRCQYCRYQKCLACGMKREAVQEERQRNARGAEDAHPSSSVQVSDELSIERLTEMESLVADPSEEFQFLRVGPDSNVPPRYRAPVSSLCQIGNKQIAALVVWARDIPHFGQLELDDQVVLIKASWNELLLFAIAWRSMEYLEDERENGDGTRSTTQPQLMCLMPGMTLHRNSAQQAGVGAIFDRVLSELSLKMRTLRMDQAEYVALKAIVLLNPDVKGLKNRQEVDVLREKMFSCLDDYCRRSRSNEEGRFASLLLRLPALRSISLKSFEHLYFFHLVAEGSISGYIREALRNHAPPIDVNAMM
T1 sequence (Q61026 322-1121 partner limits assumed): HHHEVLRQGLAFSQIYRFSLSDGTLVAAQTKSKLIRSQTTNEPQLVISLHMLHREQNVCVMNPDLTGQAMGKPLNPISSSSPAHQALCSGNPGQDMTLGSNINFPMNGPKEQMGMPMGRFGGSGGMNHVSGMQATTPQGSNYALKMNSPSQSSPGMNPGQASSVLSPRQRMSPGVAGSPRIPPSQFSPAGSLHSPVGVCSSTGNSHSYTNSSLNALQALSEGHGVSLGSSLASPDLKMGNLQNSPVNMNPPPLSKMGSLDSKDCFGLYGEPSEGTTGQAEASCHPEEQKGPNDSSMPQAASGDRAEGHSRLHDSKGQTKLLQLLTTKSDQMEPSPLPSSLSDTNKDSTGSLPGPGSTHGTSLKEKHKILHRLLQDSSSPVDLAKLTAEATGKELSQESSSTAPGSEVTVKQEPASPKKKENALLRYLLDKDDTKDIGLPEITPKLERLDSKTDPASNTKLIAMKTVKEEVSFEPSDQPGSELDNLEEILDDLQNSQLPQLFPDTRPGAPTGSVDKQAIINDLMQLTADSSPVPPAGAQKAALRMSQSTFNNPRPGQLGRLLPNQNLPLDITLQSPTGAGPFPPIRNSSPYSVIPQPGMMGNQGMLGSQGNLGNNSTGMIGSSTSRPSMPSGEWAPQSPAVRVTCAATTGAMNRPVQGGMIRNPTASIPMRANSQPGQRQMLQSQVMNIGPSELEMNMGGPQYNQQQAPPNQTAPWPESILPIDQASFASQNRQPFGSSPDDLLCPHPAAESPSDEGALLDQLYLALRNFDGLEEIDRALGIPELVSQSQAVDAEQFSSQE
T2 sequence (P34021 221-878, stated change not applied): as the sequence (P34021 221-878 limits assumed, stated change not applied) above
T2 sequence (O76202 with tags, fused parts or gaps partner): as the sequence (O76202 with tags, fused parts or gaps partner) above

`CCc1ccc(C(=O)NN(C(=O)c2cc(C)cc(C)c2)C(C)(C)C)cc1` [RH 5992, tebufenozide] showed a β-galactosidase activity [1] of 1.409, a β-galactosidase activity [2] of 0.590 and a β-galactosidase activity [3] of 3.000.
